# Assay results from ChEMBL document CHEMBL4825727, “Cytotoxic oxidovanadium(IV) complexes of tridentate halogen-substituted Schiff bases: First dinuclear V(IV) complexes with O → VIV = O → VIV = O core” (Bioorg Med Chem Lett, 2021).
# Assays:
# Assay type in all cases: functional, cell-based
# PC-3 = experiment: Cytotoxicity against human PC-3 cells assessed as reduction in cell viability measured after 48 hrs by MTT assay; details: PC-3, 48 h
# A2780 = experiment: Cytotoxicity against human A2780 cells assessed as reduction in cell viability measured after 48 hrs by MTT assay; details: A2780, 48 h
# MCF7 = experiment: Cytotoxicity against human MCF7 cells assessed as reduction in cell viability measured after 48 hrs by MTT assay; details: MCF7, 48 h
SMILES,IC50 (PC-3) [µM],IC50 (A2780) [µM],IC50 (MCF7) [µM]
Oc1ccc(Cl)cc1/C=N/CCc1ccccn1,110,51,45
Oc1ccc(Br)cc1/C=N/CCc1ccccn1,108,50,42
Oc1c(Br)cc(Cl)cc1/C=N/CCc1ccccn1,83,48,48
Oc1ccccc1/C=N/CCc1ccccn1,> 100,> 100,> 100
